Several values for one entry are separate records, joined by “and”; a condition that tells them apart may be missing. Identical values can stand only once. Like-named read-outs stand apart in the source and are kept apart here.
Columns and labels:
Format in all cases: cell-based
microglia = test: Ranking of NO release inhibition (Example 12); conditions: Microglia, ranking table
Description: The bis- and tris-dihydroxyaryl compounds were ranked in order of effectiveness for the inhibition of NO release as set out in Table 8.

[1] = tested on: EOC 13.31 microglia cells; test: Inhibition of NO release from microglia following 24 hours pretreatment (Example 10); conditions: for inhibition at 50 µM: Microglia
Procedure, shortened: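 Confluent EOC 13.31 cells pretreated 24 hours with 50 μM compound (from 10 mM DMSO stock), then stimulated with 10 μg/ml LPS plus 10 ng/ml IFNγ without media change. After a further 48 hours, NO release was measured by Griess Reaction.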

Microglial cells = test: Dose response inhibition of NO release from microglia, 0.5-500 μM (Example 9); conditions: for inhibition at 0.5 µM / inhibition at 1 µM / inhibition at 100 µM / inhibition at 250 µM / inhibition at 500 µM / μM NO release / μM NO release (No LPS average subtracted) / % inhibition: 48 hours; for μM NO release / μM NO release (No LPS average subtracted): 3 replicates
Method: This experiment was designed to determine the dose response inhibition of NO release from microglia by bis- and tris-dihydroxyaryl compounds when stimulated with LPS/IFNγ. Earlier experiments have demonostrated that some bis- and tris-dihydroxyaryl compounds are good inhibitors of NO release from microglia. This experiment is designed to determine a dose response for various effective bis- and tris-dihydroxyaryl compounds. Microglial cells were plated into 96 well plates at 1×10^5 cells/ml. At 48 hours, media was exchanged for media containing 10 ng/ml IFNγ and 10 μg/ml LPS and the following compounds 3, 4, 21, 26 and the positive control L-NAME. The doses tested were: 0.5 μM, 1.0 μM, 5.0 μM, 10 μM, 25 μM, 50 μM, 100 μM, 250 μM, and 500 μM. Nitric oxide release was measured after 48 hours using the Griess reaction.

**Q.** How did the inhibition at 50 µM (microglia) turn out when `Oc1ccc(CNCc2ccc(O)c(O)c2)cc1O` [Compound 73, bis(3,4-dihydroxybenzyl)amine] was run?
**A.** 2%

**Q.** And the “μM NO release” value ([1]; 50 uM pretreatment 24 hours, then LPS/IFNγ 48 hours, single replicates)?
**A.** 0.000 µM

**Q.** What about the inhibition at 50 µM ([1]; 50 uM pretreatment 24 hours, then LPS/IFNγ 48 hours, read-out: Avg % Inhibition) of the same molecule?
**A.** 100%

**Q.** What about the inhibition at 50 µM ([1]; 50 uM pretreatment 24 hours, then LPS/IFNγ 48 hours, single replicates, read-out: % inhibition) of the same molecule?
**A.** 100%

**Q.** What about the inhibition at 50 µM ([1]; 50 μM pretreatment, read-out: inhibition of NO release following pretreatment) of the same molecule?
**A.** > 75%

**Q.** And the inhibition at 0.5 µM (Microglial cells; Microglia, 48 h, dose 0.5 μM, NO release, LPS/IFNγ, read-out: Avg % Inhibition)?
**A.** 12.7%

**Q.** What about the inhibition at 0.5 µM (Microglial cells; Microglia, 48 h, dose 0.5 μM, individual replicates, NO release, LPS/IFNγ, read-out: % inhibition) of the same molecule?
**A.** 15.5%

**Q.** And the inhibition at 1 µM (Microglial cells; Microglia, 48 h, dose 1 μM, NO release, LPS/IFNγ, read-out: Avg % Inhibition)?
**A.** 16.5%

**Q.** What about the inhibition at 1 µM (Microglial cells; Microglia, 48 h, dose 1 μM, individual replicates, NO release, LPS/IFNγ, read-out: % inhibition) of the same molecule?
**A.** 17.7%

**Q.** What about the inhibition at 5 µM (Microglial cells; Microglia, 48 h, dose 5 μM, NO release, LPS/IFNγ) of the same molecule?
**A.** 1.5%

**Q.** And the inhibition at 10 µM (Microglial cells; Microglia, 48 h, dose 10 μM, NO release, LPS/IFNγ)?
**A.** 1.75%

**Q.** What about the inhibition at 25 µM (Microglial cells; Microglia, 48 h, dose 25 μM, NO release, LPS/IFNγ) of the same molecule?
**A.** 0.75%

**Q.** What about the inhibition at 50 µM (Microglial cells; Microglia, 48 h, dose 50 μM, NO release, LPS/IFNγ) of the same molecule?
**A.** 0.25%

**Q.** And the inhibition at 100 µM (Microglial cells; Microglia, 48 h, dose 100 μM, NO release, LPS/IFNγ, read-out: Avg % Inhibition)?
**A.** 33%

**Q.** And the inhibition at 100 µM (Microglial cells; Microglia, 48 h, dose 100 μM, individual replicates, NO release, LPS/IFNγ, read-out: % inhibition)?
**A.** 31.2%

**Q.** And the inhibition at 250 µM (Microglial cells; Microglia, 48 h, dose 250 μM, NO release, LPS/IFNγ, read-out: Avg % Inhibition)?
**A.** 45.3%

**Q.** What about the inhibition at 250 µM (Microglial cells; Microglia, 48 h, dose 250 μM, individual replicates, NO release, LPS/IFNγ, read-out: % inhibition) of the same molecule?
**A.** 46.7%

**Q.** What about the inhibition at 500 µM (Microglial cells; Microglia, 48 h, dose 500 μM, NO release, LPS/IFNγ, read-out: Avg % Inhibition) of the same molecule?
**A.** 72.3%

**Q.** And the inhibition at 500 µM (Microglial cells; Microglia, 48 h, dose 500 μM, individual replicates, NO release, LPS/IFNγ, read-out: % inhibition)?
**A.** 72.6%

**Q.** And the inhibition at 500 µM (Microglial cells; Microglia, 48 h, highest concentration tested (500 μM), read-out: inhibited NO release by)?
**A.** 72%

**Q.** What about the “μM NO release” value (Microglial cells; dose 0.5 μM, LPS/IFNγ) of the same molecule?
**A.** 17.361 µM and 18.194 µM and 18.056 µM

**Q.** And the “μM NO release (No LPS average subtracted)” value (Microglial cells; dose 0.5 μM, LPS/IFNγ)?
**A.** 15.66 µM and 16.49 µM and 16.36 µM

**Q.** What about the “% inhibition” value (Microglial cells; dose 0.5 μM, individual replicates, NO release, LPS/IFNγ) of the same molecule?
**A.** 10.99% and 11.74%

**Q.** And the “μM NO release” value (Microglial cells; dose 1 μM, LPS/IFNγ)?
**A.** 16.944 µM and 16.806 µM and 17.778 µM

**Q.** And the “μM NO release (No LPS average subtracted)” value (Microglial cells; dose 1 μM, LPS/IFNγ)?
**A.** 15.25 µM and 15.11 µM and 16.08 µM

**Q.** What about the “% inhibition” value (Microglial cells; dose 1 μM, individual replicates, NO release, LPS/IFNγ) of the same molecule?
**A.** 18.49% and 13.25%

**Q.** And the “μM NO release” value (Microglial cells; dose 5 μM, LPS/IFNγ)?
**A.** 20.000 µM and 19.583 µM and 20.278 µM

**Q.** What about the “μM NO release (No LPS average subtracted)” value (Microglial cells; dose 5 μM, LPS/IFNγ) of the same molecule?
**A.** 18.30 µM and 17.88 µM and 18.58 µM

**Q.** And the “% inhibition” value (Microglial cells; dose 5 μM, individual replicates, NO release, LPS/IFNγ)?
**A.** 1.25% and 3.50% and −0.25%

**Q.** And the “μM NO release” value (Microglial cells; dose 10 μM, LPS/IFNγ)?
**A.** 18.889 μM and 20.417 μM (2×)

**Q.** And the “μM NO release (No LPS average subtracted)” value (Microglial cells; dose 10 μM, LPS/IFNγ)?
**A.** 17.19 μM and 18.72 μM (2×)

**Q.** What about the “% inhibition” value (Microglial cells; dose 10 μM, individual replicates, NO release, LPS/IFNγ) of the same molecule?
**A.** 7.24% and −1.00% (2×)

**Q.** What about the “μM NO release” value (Microglial cells; dose 25 μM, LPS/IFNγ) of the same molecule?
**A.** 19.167 µM and 20.139 µM and 20.972 µM

**Q.** And the “μM NO release (No LPS average subtracted)” value (Microglial cells; dose 25 μM, LPS/IFNγ)?
**A.** 17.47 µM and 18.44 µM and 19.27 µM

**Q.** What about the “% inhibition” value (Microglial cells; dose 25 μM, individual replicates, NO release, LPS/IFNγ) of the same molecule?
**A.** 5.75% and 0.50% and −4.00%

**Q.** What about the “μM NO release” value (Microglial cells; dose 50 μM, LPS/IFNγ) of the same molecule?
**A.** 19.444 µM and 19.861 µM and 21.250 µM

**Q.** And the “μM NO release (No LPS average subtracted)” value (Microglial cells; dose 50 μM, LPS/IFNγ)?
**A.** 17.74 µM and 18.16 µM and 19.55 µM

**Q.** What about the “% inhibition” value (Microglial cells; dose 50 μM, individual replicates, NO release, LPS/IFNγ) of the same molecule?
**A.** 4.25% and 2.00% and −5.50%

**Q.** What about the “μM NO release” value (Microglial cells; dose 100 μM, LPS/IFNγ) of the same molecule?
**A.** 14.444 µM and 13.056 µM and 14.861 µM

**Q.** What about the “μM NO release (No LPS average subtracted)” value (Microglial cells; dose 100 μM, LPS/IFNγ) of the same molecule?
**A.** 12.74 µM and 11.36 µM and 13.16 µM

**Q.** What about the “% inhibition” value (Microglial cells; dose 100 μM, individual replicates, NO release, LPS/IFNγ) of the same molecule?
**A.** 38.72% and 28.98%

**Q.** And the “μM NO release” value (Microglial cells; dose 250 μM, LPS/IFNγ)?
**A.** 11.569 µM and 10.904 µM and 13.056 µM

**Q.** And the “μM NO release (No LPS average subtracted)” value (Microglial cells; dose 250 μM, LPS/IFNγ)?
**A.** 9.87 µM and 9.20 µM and 11.36 µM

**Q.** What about the “% inhibition” value (Microglial cells; dose 250 μM, individual replicates, NO release, LPS/IFNγ) of the same molecule?
**A.** 50.33% and 38.72%

**Q.** What about the “μM NO release” value (Microglial cells; dose 500 μM, LPS/IFNγ) of the same molecule?
**A.** 6.782 µM and 6.516 µM and 7.181 µM

**Q.** And the “μM NO release (No LPS average subtracted)” value (Microglial cells; dose 500 μM, LPS/IFNγ)?
**A.** 5.08 µM and 4.82 µM and 5.48 µM

**Q.** And the “% inhibition” value (Microglial cells; dose 500 μM, individual replicates, NO release, LPS/IFNγ)?
**A.** 74.01% and 70.42%

— patent US20070208087A1, “Compounds, compositions and methods for the treatment of inflammatory diseases” (priority 2001, published 2007)
